In patent US7148237B2, “Nitrogen-containing heteroaryl compounds having HIV integrase inhibitory activity” (Shionogi & Co., Ltd., priority 2001, dated 2006):

Tests used:
integrase = integrase (Human immunodeficiency virus type 1 group M subtype B, UniProt P04585); assay: Integrase inhibition assay (microtiter plate strand transfer, substrate DNA/target DNA, anti-digoxigenin ELISA readout); format: biochemical; conditions: concentration of the compound at percent inhibition 50%; OD at 405 nm
Experimental: The inhibitory activities against integrase of the compounds in the present invention have been determined by the assay described below.
Substrate DNA and target DNA, which sequences were indicated below, were synthesized by Amersham Pharmacia Biotech and dissolved in KTE buffer (composition: 100 mM KCl, 1 mM EDTA, 10 mM Tris-HCl (pH 7.6)) at concentration of 2 pmol/μl and 5 pmol/μl, respectively. The DNA solutions were annealed with each complement by slowly cooling after heating.
Streptavidin, obtained from Vector Laboratories, was dissolved in 0.1 M carbonate buffer (composition: 90 mM Na2CO3, 10 mM NaHCO3) at concentration of 40 μg/ml. After coating each well of microtiter plates (obtained from NUNC) with 50 μl of the above solution at 4° C. over night, each well was washed twice with PBS (composition: […], 0.27 mM KCl, 0.43 mM Na2HPO4, 0.14 mM KH2PO4) and blocked with 300 μL of 1% skim milk in PBS for 30 min. Additionally, each well was washed twice with PBS and added 50 μl of substrate DNA solution (2 pmol/μl). The microtiter plates were kept at room temperature for 30 min. Then, each well was washed twice with PBS and once with H2O.
Subsequently, in the each well prepared above were added 45 μl of the reaction buffer prepared from 12 μl of the buffer (composition: 150 mM MOPS (pH 7.2), 75 mM MnCl2, 50 mM 2-mercaptoethanol, 25% glycerol, 500 μg/ml bovine serum albumin-fraction V), 1 μl of target DNA (5 pmol/μl), and 32 μl of the distilled water. Additionally, 6 μl of either a test compound in DMSO or DMSO for positive control (PC) was mixed with the above reaction buffer, then 9 μl of an integrase solution (30 pmol) was added and mixed well. In the well of negative control (NC) was added 9 μl of the integrase dilution buffer (composition: 20 mM MOPS (pH7.2), 400 mM potassium glutamate, 1 mM EDTA, 0.1% NP-40, 20% glycerol, 1 mM DTT, 4 M urea).
The microtiter plates were incubated at 30° C. for 1 hour. The reaction solution was removed and each well was washed twice with PBS. Subsequently, each well of the microtiter plates was filled with 100 μl of anti-digoxigenin antibody labeled with alkaline phosphatase (Sheep Fab fragment: obtained from Boehringer) and incubated at 30° C. for 1 hour. Then, each well was washed twice with 0.05% Tween20 in PBS and once with PBS. Next, 150 μl of the Alkaline phosphatase reaction buffer (composition: 10 mM p-Nitrophenylphosphate (obtained from Vector Laboratories), 5 mM MgCl2, 100 mM NaCl, 100 mM Tris-HCl (pH 9.5)) was added in each well. The microtiter plates were incubated at 30° C. for 2 hours and the reaction was terminated by the addition of 50 μl of 1 N NaOH solution. The optical density (OD) at 405 nm of each well was measured and the percent inhibition was determined by the following expression. The percent inhibition (%)=100[1−{(C abs.−NC abs.)/(PC abs.−NC abs.)}] • C abs.; the OD of the well of the • NC abs.: the OD of the negative control (NC) • PC abs.: the OD of the positive control (PC)
When the percent inhibition (%) is X % at the concentration of x μg/ml and the percent inhibition (%) is Y % at the concentration of y μg/ml, one of which is more than 50% and the other is less than 50%, IC50 can be determined by the following expression. IC50(μg/ml)=x−{(X−50)(x−y)/(X−Y)}

Structure (SMILES)	melting point	IC50 (integrase) [µM]
O=C(c1ccccc1)c1cc(C(=O)O)c2cc(Cc3ccc(F)cc3)cnc2c1O	220 to 223 °C	–
COC(=O)c1cc(Cl)c2[nH]c(Cc3ccc(F)cc3)nc2c1O [Compound I-1]	257 to 260 °C	1.61
COC(=O)c1cc(C(=O)Nc2ccccn2)c2cc(Cc3ccc(F)cc3)cnc2c1O	190 to 194 °C	–
Cc1nc2c(O)c(-c3nnc(Cc4ccccc4)o3)cc(Cl)c2[nH]1 [Compound I-35]	255 to 257 °C	0.704
O=C(c1nccs1)c1ccc2[nH]c(Cc3ccc(F)cc3)nc2c1O [Compound I-27]	239 to 240 °C	0.538
CCOC(=O)c1cc(CC)c2cc(Cc3ccc(F)cc3)cnc2c1O	78 to 80 °C	–
Cc1nc2c(O)c(-c3nnc(COc4ccccc4)o3)cc(Cl)c2[nH]1 [Compound I-37]	266 to 268 °C	1.54
CCn1c(C)nc2c(O)c(-c3ncc(Cc4ccc(F)cc4)o3)ccc21	150 to 151 °C	–
O=C(O)c1cc(Cl)c2cc(Cc3ccc(F)cc3)cnc2c1O [Compound I-65]	222 to 224 °C	0.332
COC(=O)c1cc(Cl)c2c(nc(Cc3ccc(F)cc3)n2C)c1O [Compound I-6]	198 to 201 °C	1.27
O=C(c1ccc(Cc2ccc(F)cc2)o1)c1cc(Cl)c2cccnc2c1O	126 to 128 °C	–
O=C(c1cc(Cl)c2[nH]c(Cc3ccc(F)cc3)nc2c1O)N1CCCC1 [Compound I-20]	268 to 272 °C (dec.)	2.03
O=C(O)c1ccc2[nH]c(CCc3ccc(F)cc3)nc2c1O	152 to 155 °C	–
O=C(c1ccc(Sc2ccc(F)cc2)o1)c1cc(Cl)c2cccnc2c1O [Compound I-63]	120 to 122 °C	1.05
